For one compound, Kd results are on record in article PMC8093080 (Biochemistry, 2020).

Molecules are shown by their SMILES.

This experiment addresses T1, trp RNA-binding attenuation protein (TRAP) (Geobacillus stearothermophilus, UniProt Q9X6J6).
T1 sequence (Q9X6J6 1-74): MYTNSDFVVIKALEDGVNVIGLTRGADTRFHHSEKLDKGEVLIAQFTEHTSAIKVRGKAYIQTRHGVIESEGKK
The experiment in a line: ITC at […]°C in phosphate buffer.

With `N[C@@H](Cc1c[nH]c2ccccc12)C(=O)O` [Trp, tryptophan], the Kd is 115 ± 3 nM.
